Consider 74 compounds from publication PMC6792352, “Limited Chemical Structural Diversity Found to Modulate Thyroid Hormone Receptor in the Tox21 Chemical Library” (Environmental Health Perspectives, 2019).

Where a name gives a salt, the structure may show the parent alone.

In general, CC50 refers to the concentration at which the toxic effect on the cells reaches its halfway point. Read a low CC50 as harm at low concentration.

This data set in a line: in vitro. Particulars: rat, gh3-tre-luc cells.

`CCCSc1cc(OC)c(CCN)cc1OC` [2-[2,5-dimethoxy-4-(propylsulfanyl)phenyl]ethanamine hydrochloride] registered a CC50 at 24 h (AC50 (uM) modified / 1000, Tox21_110001=Tox21_112821, viability, 1 nM T3 present, 24 h) of 34.6 µM.
As to `C[C@]12CC[C@@H]3c4ccc(O)cc4CC[C@H]3[C@@H]1CCC2=O` [Estrone], the half-maximal cytotoxic concentration (CC50) at 24 h (AC50 (uM) modified / 1000) is more than 50 µM.
Under “AC50 (uM) modified / 1000”, `CC[C@@H](C)[C@@H](N)C(=O)O` [D-Isoleucine] had a cytotoxic concentration (CC50) at 24 h of more than 50 µM.
`CC(C)=CCC/C(C)=C/C(=O)O` [Geranic acid]: the CC50 at 24 h (AC50 (uM) modified / 1000) is more than 90 µM.
Consider `CCCN` [Propylammonium nitrate], for which, for the setting “AC50 (uM) modified / 1000”, the CC50 at 24 h was more than 90 µM.
Still for that read-out and setting: the result for `O=C(Cn1ccnc1[N+](=O)[O-])NCCO` [Etandazole] reads more than 50 µM; that for `CC(C)Cn1cnc2c(N)nc3ccccc3c21` [Imiquimod], more than 50 µM.
On the same count and under the same terms, the value for `Nc1cc(S(=O)(=O)O)ccc1S(=O)(=O)O` [2-Aminobenzene-1,4-disulfonic acid] was more than 90 µM; that for `CO[C@@H]1[C@@H](OC)[C@H](C)[C@@](O)(CC(=O)O)O[C@H]1[C@H](C)[C@H]1O[C@@]2(CC[C@@](C)([C@H]3CC[C@@](C)([C@@H]4O[C@@H]([C@H]5O[C@](C)(O)[C@H](C)C[C@@H]5C)C[C@@H]4O[C@@H]4C[C@H](OC)[C@@H](OC)[C@H](C)O4)O3)O2)C[C@H](O)[C@H]1C` [Maduramicin ammonium] was 0.49 µM; that for `CN1CCN(C2=Nc3ccccc3Sc3ccc(Cl)cc32)CC1` [Clothiapine] was 15.2 µM.
Still for that read-out and setting: the result for `O=C(O)CN(CCN(CC(=O)O)CC(=O)O)CCN(CC(=O)O)CC(=O)O` [Pentetic acid] reads 25 µM; that for `Cc1ccc(S(=O)(=O)NC(=O)NC2CCCCCCC2)cc1` [Glyoctamide], more than 50 µM; that for `CC(C)OC=O` [Isopropyl formate], more than 100 µM.
Take `Cc1cccc(N)c1C` [2,3-Dimethylaniline]: the CC50 at 24 h (AC50 (uM) modified / 1000) was more than 90 µM.
For `Sc1ccccc1` [Benzenethiol], for the setting “AC50 (uM) modified / 1000”, the CC50 at 24 h was more than 90 µM.
On the same count and under the same terms, the value for `C[C@@H](O)[C@H](N)C(=O)O` [L-Threonine] was more than 50 µM; that for `C=CCN1C[C@H](C(=O)N(CCCN(C)C)C(=O)NCC)C[C@@H]2c3cccc4[nH]cc(c34)C[C@H]21` [Cabergoline] was 5.04 µM; that for `C[C@@H](O)[C@H]1C(=O)N2C(C(=O)O)=C(S[C@@H]3CN[C@H](CNS(N)(=O)=O)C3)[C@H](C)[C@H]12` [Doripenem] was more than 50 µM.
On to `COc1ccc(/C=C/S(=O)(=O)NC(=O)c2ccc(C)cc2Cl)cc1` [PharmaGSID_48514], for which the half-maximal cytotoxic concentration (CC50) at 24 h (AC50 (uM) modified / 1000) is more than 90 µM.
`CCCCCCOc1ccc(C(=N)N(CCCC)CCCC)c2ccccc12` [Bunamidine hydrochloride] yielded a CC50 at 24 h (AC50 (uM) modified / 1000) of 5.23 µM.
In the case of `Nc1ccccn1` [2-Aminopyridine], the CC50 at 24 h (AC50 (uM) modified / 1000) is more than 90 µM.
Still for that read-out and setting: the value for `O=[N+]([O-])/C=C/c1ccccc1` [(E)-beta-Nitrostyrene] was 13.7 µM; that for `COC(=O)C(C)Oc1ccc(Oc2ncc(C(F)(F)F)cc2Cl)cc1` (centres unmarked) [Haloxyfop-methyl] was more than 90 µM.
Still for that read-out and setting: the result for `CCCCc1cc2c(=O)c(C(=O)OC)c[nH]c2cc1OCc1ccccc1` [Nequinate] reads more than 50 µM; that for `Cc1ccc(C(=O)c2ccc(CC(=O)O)n2C)cc1` [Tolmetin sodium dihydrate], more than 20 µM; that for `O=C(O)c1cc(=O)[nH]c(=O)[nH]1` [Orotic acid], more than 90 µM.
On the same count and under the same terms, the result for `COc1ccc(C(=O)CCC(=O)O)c2ccccc12` [Menbutone] reads more than 50 µM; that for `CCc1cnc(C2=NC(C)(C(C)C)C(=O)N2)c(C(=O)O)c1` (centres unmarked) [Imazethapyr], more than 90 µM.
`N#CS` [Potassium thiocyanate] had a cytotoxic concentration (CC50) at 24 h (AC50 (uM) modified / 1000) of more than 90 µM.
`COc1ccc(-c2cc(=S)ss2)cc1` [Anethole trithione]: for the setting “AC50 (uM) modified / 1000”, the CC50 at 24 h was more than 50 µM.
The same measure, in the same setting: the result for `Cc1ccnc2c1NC(=O)c1cccnc1N2C1CC1` [Nevirapine] reads more than 90 µM; that for `CC(C)C(=O)OCCc1ccccc1` [2-Phenylethyl 2-methylpropanoate], more than 90 µM.
Where the note is “AC50 (uM) modified / 1000”, `O=C1CCCCCCCCCCCCCCCO1` [Oxacycloheptadecan-2-one] showed a CC50 at 24 h of more than 90 µM.
Same read-out and setting: the value for `CN1C(=O)CCS(=O)(=O)C1c1ccc(Cl)cc1` (centres unmarked) [Chlormezanone] was more than 90 µM; that for `O=C1c2ccccc2C(=O)C1c1nc2ccccc2c(Br)c1O` [C.I. Disperse Yellow 64] was more than 90 µM.
The same measure, in the same setting: the value for `CCC(=O)O[C@H]1[C@H](O[C@@H]2[C@@H](C)[C@H](O[C@H]3C[C@@](C)(OC)[C@@H](O)[C@H](C)O3)[C@@H](C)C(=O)O[C@H](CC)[C@@](C)(O)[C@H](O)[C@@H](C)C(=O)[C@H](C)C[C@@]2(C)O)O[C@H](C)C[C@@H]1N(C)C` [Erythromycin propionate] was 13.1 µM.
Turning to `CO/N=C(\C(=O)N[C@@H]1C(=O)N2C(C(=O)O)=C(CSc3cnns3)CS[C@H]12)c1csc(N)n1` [Cefuzonam hydrochloride], where the note is “AC50 (uM) modified / 1000”, the 50% cytotoxic concentration (CC50) at 24 h is more than 50 µM.
Still for that read-out and setting: the result for `CN(C)C/C=C(/c1ccc(Br)cc1)c1cccnc1` [Zimeldine dihydrochloride hydrate] reads 35.2 µM; that for `CCCOCCOCCOCCO` [2-[2-(2-Propoxyethoxy)ethoxy]ethanol], more than 90 µM.
Still for that read-out and setting: the value for `O=C(O)c1cc(Oc2ccc(C(F)(F)F)cc2Cl)ccc1[N+](=O)[O-]` [Acifluorfen-sodium] was more than 90 µM; that for `c1cc(CN2CCCCC2)cc(OCCCNc2nc3ccccc3s2)c1` [Zolantidine dimaleate] was 8.26 µM; that for `COc1ccc2c(=O)c(C)c(-c3ccccc3)oc2c1CN(C)C` [Dimefline hydrochloride] was more than 50 µM.
On the same count and under the same terms, the value for `O=C(Nc1ccc(/C=C/c2ccc(NC(=O)c3cc(S(=O)(=O)O)c4cccnc4c3O)cc2S(=O)(=O)O)c(S(=O)(=O)O)c1)c1cc(S(=O)(=O)O)c2cccnc2c1O` [Ubistatin A] was more than 50 µM; that for `CN(C)C(=O)C(CCN1CCC(O)(c2ccc(Cl)cc2)CC1)(c1ccccc1)c1ccccc1` [Loperamide] was 6.34 µM.
`O=C(Nc1ccc(Oc2ccc(Cl)cc2)c(Cl)c1)c1cc(I)cc(I)c1O` [Rafoxanide]: half-maximal cytotoxicity (AC50 (uM) modified / 1000) (CC50 at 24 h) was put at 36.2 µM.
The same measure, in the same setting: the value for `CC(C)NCC(O)c1ccc([N+](=O)[O-])cc1` (centres unmarked) [Nifenalol] was more than 50 µM.
Compound `CNC1=Nc2ccc(Cl)cc2C(c2ccccc2)=[N+]([O-])C1` [Chlordiazepoxide] had a CC50 at 24 h (AC50 (uM) modified / 1000, Tox21_110001=Tox21_111567, viability, 1 nM T3 present, 24 h) of more than 50 µM.
`C[C@@H]1CC(=O)NN=C1c1ccc(NN=C(C#N)C#N)cc1` [Levosimendan] had a CC50 at 24 h (AC50 (uM) modified / 1000) of 14.8 µM.
Where the note is “AC50 (uM) modified / 1000”, `C=C(C)CN(CC)c1c([N+](=O)[O-])cc(C(F)(F)F)cc1[N+](=O)[O-]` [Ethalfluralin] returned a CC50 at 24 h of more than 90 µM.
For the setting “AC50 (uM) modified / 1000”, `O=C(NS(=O)(=O)/C=C/c1ccccc1)c1ccc(F)cc1Cl` [PharmaGSID_48516] yielded a CC50 at 24 h of more than 90 µM.
The same measure, in the same setting: the value for `CCCCOCCOC(=O)COc1ccc(Cl)cc1Cl` [2,4-D-Butotyl] was more than 90 µM.
Still for that read-out and setting: the result for `C=C(C)C(N)=O` [Methacrylamide] reads more than 90 µM; that for `O=C(O)[C@H]1CN(C/C=C/P(=O)(O)O)CCN1` [Midafotel], more than 50 µM; that for `CC(C)(C)c1ccc2c(S(=O)(=O)O)c(C(C)(C)C)ccc2c1` [Sodium dibunate], more than 50 µM.
Consider `CCOC(N)=O` [Urethane], for which the CC50 at 24 h (AC50 (uM) modified / 1000) is more than 100 µM.
Regarding `Cc1ccc(C=O)cc1C` [3,4-Dimethylbenzaldehyde], where the note is “AC50 (uM) modified / 1000”, the CC50 at 24 h is more than 90 µM.
`c1coc(-c2nc3ccccc3[nH]2)c1` [Fuberidazole]: under “AC50 (uM) modified / 1000”, the CC50 at 24 h was more than 90 µM.
`CCC=C1OC(=O)c2ccccc21` [3-Propylidenephthalide] gave a half-maximal cytotoxic concentration (CC50) at 24 h (AC50 (uM) modified / 1000) of more than 90 µM.
On the same count and under the same terms, the result for `CC1=C(C/C=C(\C)CCC[C@H](C)CCC[C@H](C)CCCC(C)C)C(=O)c2ccccc2C1=O` [Phytonadione] reads more than 50 µM; that for `O=c1[nH]c(=O)c2ccccc2o1` [Carsalam], more than 50 µM.
Still for that read-out and setting: the result for `CC(=O)O[C@]1(C(C)=O)CC[C@H]2[C@@H]3C=C(Cl)C4=CC(=O)CC[C@]4(C)[C@H]3CC[C@@]21C` [Chlormadinone acetate] reads 90.1 µM; that for `O=Cc1ccccc1Cl` [2-Chlorobenzaldehyde], more than 90 µM; that for `COC(=O)[C@H]1[C@H]2C[C@@H]3c4[nH]c5cc(OC)ccc5c4CCN3C[C@H]2C[C@H](OC)[C@@H]1OC` [Metoserpate hydrochloride], more than 50 µM.
Turning to `Oc1ccc2c3c1O[C@H]1[C@@H](O)C=C[C@H]4[C@@H](C2)NCC[C@@]341` [N-Normorphine hydrochloride], for the setting “AC50 (uM) modified / 1000, Tox21_110001=Tox21_112862, viability, 1 nM T3 present, 24 h”, the CC50 at 24 h was more than 100 µM.
For the setting “AC50 (uM) modified / 1000”, `Cc1ccc(S(=O)(=O)NC(=O)NC2CCCCC2)cc1` [Glycyclamide] displayed a CC50 at 24 h of more than 50 µM.
In the case of `CCC(C)(C#N)N=NC(C)(C#N)CC` (centres unmarked) [2,2'-Azobis(2-methylbutanenitrile)], the CC50 at 24 h (AC50 (uM) modified / 1000, Tox21_110001=Tox21_301414, viability, 1 nM T3 present, 24 h) is more than 90 µM.
Compound `CSc1nc(NC(C)C)nc(NC(C)C)n1` [Prometryn] gave a CC50 at 24 h (AC50 (uM) modified / 1000) of more than 90 µM.
The same measure, in the same setting: the value for `Nc1ccc(S(=O)(=O)Nc2ccnn2-c2ccccc2)cc1` [Sulfaphenazole] was more than 20 µM; that for `CO[C@H]1O[C@H](CO)[C@@H](O)[C@H](O)[C@H]1O` [Methyl alpha-D-glucopyranoside] was more than 90 µM; that for `Cc1c(Nc2ncccc2C(=O)O)cccc1C(F)(F)F` [Flunixin meglumine] was 3.99 µM.
Same read-out and setting: the value for `CN1CCN(CCCN2c3ccccc3Sc3ccc(Cl)cc32)CC1` [Prochlorperazine dimaleate] was 5.73 µM; that for `ClCC1CO1` (centres unmarked) [Epichlorohydrin] was more than 90 µM.
`O=C(O)c1cc(=O)c2c(OCC(O)COc3cccc4oc(C(=O)O)cc(=O)c34)cccc2o1` [Cromolyn sodium] returned a CC50 at 24 h (AC50 (uM) modified / 1000) of more than 50 µM.
Still for that read-out and setting: the result for `C[C@@](Cc1ccc(O)c(O)c1)(NN)C(=O)O` [Carbidopa] reads more than 50 µM.
